Test results from patent US20240383904A1, “HETEROCYCLIC COMPOUNDS” (Hoffmann-La Roche Inc., priority 2021, published 2024).

Biological target: T1, MAGL (Homo sapiens, UniProt Q99685)
T1 sequence (Q99685 1-303): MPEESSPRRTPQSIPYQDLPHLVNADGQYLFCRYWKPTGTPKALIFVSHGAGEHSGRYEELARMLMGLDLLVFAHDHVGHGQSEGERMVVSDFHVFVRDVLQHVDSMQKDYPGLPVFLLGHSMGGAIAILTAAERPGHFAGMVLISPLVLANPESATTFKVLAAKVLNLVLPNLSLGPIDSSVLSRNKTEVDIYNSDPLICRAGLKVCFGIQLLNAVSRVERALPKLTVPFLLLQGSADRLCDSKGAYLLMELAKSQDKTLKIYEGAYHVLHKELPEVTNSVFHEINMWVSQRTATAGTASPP
Experiment: 2-AG assay: MAGL inhibitory activity by hydrolysis of 2-arachidonoylglycerol to arachidonic acid, followed by mass spectrometry
Format: biochemical
Conditions: 15 min preincubation, 30 min reaction at RT, 8 μM 2-arachidonoylglycerol

SMILES	IC50
N=[S@](=O)(c1ccc(CC2CC3(C2)CN(C(=O)N2CC4(COCC(=O)N4)C2)C3)cc1)C(F)(F)F [Example 285, 2-[6-[[4-(trifluoromethylsulfoni-midoyl)phenyl]methyl]-2-azaspiro[3.3]heptane-2-carbonyl]-8-oxa-2,5-diazaspiro[3.5]nonan-6-one]	4.95 nM
N=[S@@](=O)(c1ccc(CC2CC3(C2)CN(C(=O)N2CC4(CCC(=O)N4)C2)C3)cc1)C(F)(F)F [Example 286, 2-[6-[[4-(trifluoromethylsulfoni-midoyl)phenyl]methyl]-2-azaspiro[3.3]heptane-2-carbonyl]-2,5-diazaspiro[3.4]octan-6-one]	2.89 nM
N=[S@@](=O)(c1ccc(CC2CC3(C2)CN(C(=O)N2CC4(COCC(=O)N4)C2)C3)cc1)C(F)(F)F [Example 288, 2-[6-[[4-(trifluoromethylsulfoni-midoyl)phenyl]methyl]-2-azaspiro[3.3]heptane-2-carbonyl]-8-oxa-2,5-diazaspiro[3.5]nonan-6-one]	8.91 nM
N=[S@@](=O)(c1cccc(CC2CC3(C2)CN(C(=O)N2CC4(CCCC(=O)N4)C2)C3)c1)C(F)(F)F [Example 290, 2-[6-[[3-(trifluoromethylsulfoni-midoyl)phenyl]methyl]-2-azaspiro[3.3]heptane-2-carbonyl]-2,5-diazaspiro[3.5]nonan-6-one]	45.6 nM
N=[S@](=O)(c1cccc(CC2CC3(C2)CN(C(=O)N2CC4(CCC(=O)N4)C2)C3)c1)C(F)(F)F [Example 292, 2-[6-[[3-(trifluoromethylsulfoni-midoyl)phenyl]methyl]-2-azaspiro[3.3]heptane-2-carbonyl]-2,5-diazaspiro[3.4]octan-6-one]	1.29 nM
N=[S@](=O)(c1cccc(CC2CC3(C2)CN(C(=O)N2CC4(CCCC(=O)N4)C2)C3)c1)C(F)(F)F [Example 293, 2-[6-[[3-(trifluoromethylsulfoni-midoyl)phenyl]methyl]-2-azaspiro[3.3]heptane-2-carbonyl]-2,5-diazaspiro[3.5]nonan-6-one]	69.4 nM
N=[S@](=O)(c1cccc(CC2CC3(C2)CN(C(=O)N2CC4(COCC(=O)N4)C2)C3)c1)C(F)(F)F [Example 294, 2-[6-[[3-(trifluoromethylsulfoni-midoyl)phenyl]methyl]-2-azaspiro[3.3]heptane-2-carbonyl]-8-oxa-2,5-diazaspiro[3.5]nonan-6-one]	2.15 nM
N=S(=O)(c1cccc(OC(F)(F)F)c1)C1CC2(C1)CN(C(=O)N1CC3(CCC(=O)N3)C1)C2 (stereo not drawn) [Example 297, 2-[6-[[3-(trifluoromethoxy)phenyl]sulfonimidoyl]-2-azaspiro[3.3]heptane-2-carbonyl]-2,5-diazaspiro[3.4]octan-6-one]	75.9 nM

More lines, in order of falling IC50, values ahead:

IC50	SMILES
1.27 nM	N=[S@@](=O)(c1cccc(CC2CC3(C2)CN(C(=O)N2CC4(COCC(=O)N4)C2)C3)c1)C(F)(F)F [Example 291, 2-[6-[[3-(trifluoromethylsulfoni-midoyl)phenyl]methyl]-2-azaspiro[3.3]heptane-2-carbonyl]-8-oxa-2,5-diazaspiro[3.5]nonan-6-one]
0.44 nM	N=[S@@](=O)(c1cccc(CC2CC3(C2)CN(C(=O)N2CC4(CCC(=O)N4)C2)C3)c1)C(F)(F)F [Example 289, 2-[6-[[3-(trifluoromethylsulfoni-midoyl)phenyl]methyl]-2-azaspiro[3.3]heptane-2-carbonyl]-2,5-diazaspiro[3.4]octan-6-one]
0.15 nM	O=C1COCC2(CN(C(=O)N3CC4(CC(Cc5ccc(S(=O)(=O)C(F)(F)F)cc5)C4)C3)C2)N1 [Example 296, 2-[6-[[4-(trifluoromethylsulfonyl)phenyl]methyl]-2-azaspiro[3.3]heptane-2-carbonyl]-8-oxa-2,5-diazaspiro[3.5]nonan-6-one]
0.07 nM	O=C1CCC2(CN(C(=O)N3CC4(CC(Cc5ccc(S(=O)(=O)C(F)(F)F)cc5)C4)C3)C2)N1 [Example 295, 2-[6-[[4-(trifluoromethylsulfonyl)phenyl]methy]-2-azaspiro[3.3]heptane-2-carbonyl]-2,5-diazaspiro[3.4]octan-6-one]
